Results: PMC9144807, “Fluorine-18 Labeled Urea-Based Ligands Targeting Prostate-Specific Membrane Antigen (PSMA) with Increased Tumor and Decreased Renal Uptake” (Pharmaceuticals, 2022)
Several values for one entry are separate records, joined by “and”; a condition that tells them apart may be missing. Equal entries are not always repeated. Where two headings read alike, the source gives them in different places.

How the values were obtained:
PC3(+) xenografts [1] = experiment: In vivo biodistribution in PC3(+) xenograft mice; design: key to salivary gland T:M / Femur T:M / Blood T:M / Kidney T:M / Liver T:M: T:M = (%ID/g in tissue) / (%ID/g in muscle)
Experimental: (§1) PC3(−) (wildtype human prostate cancer cell line, PSMA negative) and PC3(+) (transfected with human PSMA) were provided by Dr. Hisataka Kobayashi. Cell lines were grown at 37 °C in 5% CO2 in RPMI-1640 supplemented with 10% FBS, 2 mM L-glutamine and Pen/Strep/Amphotericin B. PC3(+) and PC3(−) cell suspensions [2 × 10^6 cells; PBS:Matrigel (70:30)] from in vitro cell culture were subcutaneously implanted (right shoulder) into athymic mice (Athymic NCr- nu/nu, Charles River Laboratory, 4 weeks old) for use as positive and negative controls, respectively, for in vitro or in vivo studies. When tumors reached the appropriate size (>100 mg) the xenograft mice were used for in vivo biodistributions and imaging studies or the tumors were excised and further processed to obtain membrane preparations for in vitro assays as described previously.
(§2) Tumor-bearing mice (tumor weights: 0.1–0.8 g) were injected while awake via the tail vein with each of the tracers [0.74–3.7 MBq (20 to 100 µCi), 10 to 80 pmol] and euthanized (via CO2 inhalation) at selected times. […] Blood samples and tissues were excised from each animal, weighed, and radioactivity content was determined (Perkin Elmer 2480 Wizard3). Radioactivity content in the blood and each tissue was expressed as % injected dose per gram of tissue [%ID/g; (Formula (1))] and then normalized for body weight to a 20 g mouse (Formula (2)) from which Tissue:Muscle ratios [T:M; (Formula (3))] were determined as follows:(1) %ID/g =[counts per minute cpmtissue / tissue weight g]×100/cpmtotal injected dose
(§3) %ID/g (normalized to a 20 g mouse) = (%ID/g) × (body weight/20 g)(2)
(§4) (3) T:M=%ID/gtissue/%ID/gmuscle

[2] = Fraction of intact tracer (parent) in blood and kidney by TLC; assay type: in vivo, mice; settings: for %Parent compound in blood (TLC analysis): 60 min; for tissue uptake at 0.25 h: 15 min post-injection; for tissue uptake at 0.5 h: 30 min post-injection; for tissue uptake at 2 h: 120 min post-injection
From the text: In some cases, additional blood samples and/or tissue samples after gamma counting were taken for determining the fraction of intact radiolabeled tracer (parent) using thin-layer chromatography (TLC). For these TLC determinations: tissues were placed in equal volumes of acetonitrile and homogenized, or serum was obtained from the blood samples and mixed with an equal volume of acetonitrile. Following centrifugation of the samples, supernatants were collected and the radioactive content of the supernatants and pellets were determined. The supernatants were then applied to thin-layer chromatography (TLC) plates. The TLC plates were developed [solvent system: ethyl acetate (80%), methanol (10%) and acetic acid (10%)], and exposed on a phosphorimaging plate which was scanned the next day.

PSMA [3] = molecular target: T1, PSMA (Homo sapiens, UniProt Q04609); experiment: In vitro competition binding assay with [18F]DCFPyL as radioligand, PC3(+) tumor membrane preparations
T1 construct: expressed in transfected cells; host or cells: PC3(+) (PC3 human prostate cancer cells transfected with human PSMA), grown as xenograft tumors in athymic mice; tumor membrane preparations

PSMA [4] = molecular target: T1, PSMA; experiment: In vitro saturation binding assay with PC3(+) tumor membrane preparations; settings: saturation assays, mean (SE), n = 3–5
Experimental: as §1
In vitro saturation studies were performed to determine binding affinities (Kd) and PSMA expression levels (Bmax) using tumor membrane preparations from PC3(−) and PC3(+) PSMA xenografts (human prostate cancer cell line transfected with human PSMA; PC3(+)). […] Filter papers were collected, and the radioactive content was quantified by gamma counting (PerkinElmer 2480 Wizard3). […] Aliquots of each membrane preparation were taken for the determination of the protein concentration (Bradford method).

PC3(−) xenografts = experiment: In vivo biodistribution in PC3(−) xenograft mice (negative control); settings: 60 min; mean ± SE, n = 8–10
Experimental: as §1, §2, §3, §4

PC3(+) xenografts [5] = experiment: Blocking biodistribution study in PC3(+) xenografts, coinjection of non-radioactive DCFPyL; assay type: in vivo, mice; settings: 60 min, coinjection of DCFPyL 1000×
Experimental: as §2, §3, §4

[6] = system: PC3(+) tumor xenograft mice; experiment: Small animal PET imaging with ROI analysis, PC3(+) tumor xenograft mice; assay type: in vivo; settings: 60 min post-injection
Experimental: Tumor-bearing mice were anesthetized with isoflurane/O2 (1.5–3% v/v) and imaged at various times after intravenous injection of each tracer [2.6 to 3.7 MBq (70 to 100 µCi)]. Whole body static PET images were obtained at 2 bed positions (FOV = 2.0 cm, total imaging time: 10 min) using a BioPET scanner (Bioscan Inc., Washington, DC, USA). The images were reconstructed by a 3-dimensional ordered-subsets expectation maximum (3D-OSEM).

[7] = 15 min post-injection, mean ± SE
[8] = 30 min post-injection, mean ± SE
[9] = 60 min post-injection, mean ± SE
[10] = 120 min post-injection, mean ± SE
[11] = mouse, blood, intravenous, mean ± SE, read-out: Blood uptake, parent (corrected for metabolites)
[12] = mouse, kidney, intravenous, mean ± SE, read-out: Kidney uptake, parent (corrected for metabolites)

T1 sequence (Q04609 whole entry): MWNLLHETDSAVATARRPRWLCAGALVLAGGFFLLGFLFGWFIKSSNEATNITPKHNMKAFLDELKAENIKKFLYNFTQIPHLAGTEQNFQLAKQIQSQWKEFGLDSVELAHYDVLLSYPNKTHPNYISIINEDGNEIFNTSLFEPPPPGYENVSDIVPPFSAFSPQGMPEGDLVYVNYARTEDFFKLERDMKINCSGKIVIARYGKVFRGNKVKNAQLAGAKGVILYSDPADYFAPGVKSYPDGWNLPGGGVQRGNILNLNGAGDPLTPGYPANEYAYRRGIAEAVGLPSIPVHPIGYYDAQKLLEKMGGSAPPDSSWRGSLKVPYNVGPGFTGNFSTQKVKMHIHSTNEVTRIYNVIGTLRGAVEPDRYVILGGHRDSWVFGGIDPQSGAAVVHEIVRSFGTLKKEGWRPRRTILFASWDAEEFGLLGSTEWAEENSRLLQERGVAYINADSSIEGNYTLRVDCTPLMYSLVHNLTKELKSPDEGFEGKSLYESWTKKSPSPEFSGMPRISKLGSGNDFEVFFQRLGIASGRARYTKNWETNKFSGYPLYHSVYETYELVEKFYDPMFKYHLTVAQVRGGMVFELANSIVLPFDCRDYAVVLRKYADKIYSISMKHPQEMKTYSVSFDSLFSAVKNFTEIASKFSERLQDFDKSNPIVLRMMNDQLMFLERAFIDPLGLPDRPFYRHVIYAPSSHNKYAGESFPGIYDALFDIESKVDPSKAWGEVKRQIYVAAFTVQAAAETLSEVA

For `O=C(O)CC[C@H](NC(=O)N[C@@H](CCCCNC(=O)CO/N=C\c1ccc([18F])cc1)C(=O)O)C(=O)O` [[^18F]1a, reference compound], the “Blood T:M” value (PC3(+) xenografts [1]; 60 min, mean ± SE, n = 8–10) was 2.39 ± 0.14, the “Femur T:M” value (PC3(+) xenografts [1]; 60 min, mean ± SE, n = 8–10) was 0.92 ± 0.09 and the “Kidney T:M” value (PC3(+) xenografts [1]; 60 min, mean ± SE, n = 8–10) was 507.8 ± 44.0. For the same molecule, the “Liver T:M” value (PC3(+) xenografts [1]; 60 min, mean ± SE, n = 8–10) was 35.7 ± 3.1, the “PC3(+) Tumor T:M” value (PC3(+) xenografts [1]; 60 min, mean ± SE, n = 8–10) was 103.0 ± 10.9 and the “%Parent compound in blood (TLC analysis)” value ([2]; mean ± SD, n = 2–5) was 50.2 ± 1.4%. The Ki (PSMA [3]) was 0.1 nM, the “decrease in Ki compared to Ki of DCFPyL” value (PSMA [3]; p = 0.006) was ~ 4 fold and the Kd (PSMA [4]) was 0.238 nM. The “PC3(−) Tumor T:M” value (PC3(−) xenografts) was 1.07 ± 0.08.
For `O=C(O)CC[C@H](NC(=O)N[C@@H](CCCCNC(=O)CCCCCO/N=C\c1ccc([18F])cc1)C(=O)O)C(=O)O` [[^18F]2a], the “Blood uptake, total radioactivity” value (PC3(+) xenografts [1]; [7]) was 4.83 ± 0.57 %ID/g, the “Kidney uptake, total radioactivity” value (PC3(+) xenografts [1]; [7]) was 62.2 ± 3.4 %ID/g and the “Blood uptake, total radioactivity” value (PC3(+) xenografts [1]; [8]) was 2.47 ± 0.18 %ID/g. The “Kidney uptake, total radioactivity” value (PC3(+) xenografts [1]; [8]) was 78.4 ± 9.1 %ID/g, the “decrease of PC3(+) tumor T:M compared to [18F]DCFPyL” value (PC3(+) xenografts [1]; 60 min) was 40% and the “increase of blood radioactivity vs. [18F]DCFPyL” value (PC3(+) xenografts [1]; 60 min) was 1.6 fold. For the same molecule, the “increase of liver T:M compared to [18F]DCFPyL” value (PC3(+) xenografts [1]; 60 min) was 6.8 fold, the “decrease of kidney T:M compared to [18F]DCFPyL” value (PC3(+) xenografts [1]; 60 min, p < 0.0001) was 55% and the “Blood T:M” value (PC3(+) xenografts [1]; 60 min, mean ± SE, n = 8–10) was 2.85 ± 0.15. For the same molecule, the “Femur T:M” value (PC3(+) xenografts [1]; 60 min, mean ± SE, n = 8–10) was 0.73 ± 0.04, the “Kidney T:M” value (PC3(+) xenografts [1]; 60 min, mean ± SE, n = 8–10) was 314.8 ± 8.3 and the “Liver T:M” value (PC3(+) xenografts [1]; 60 min, mean ± SE, n = 8–10) was 66.9 ± 4.2. The “PC3(+) Tumor T:M” value (PC3(+) xenografts [1]; 60 min, mean ± SE, n = 8–10) was 74 and 73.9 ± 5.8, the “Blood uptake, total radioactivity” value (PC3(+) xenografts [1]; [9]) was 0.77 ± 0.10 %ID/g and the “Kidney uptake, total radioactivity” value (PC3(+) xenografts [1]; [9]) was 75.8 ± 6.3 %ID/g. The “Blood uptake, total radioactivity” value (PC3(+) xenografts [1]; [10]) was 0.37 ± 0.03 %ID/g, the “Kidney uptake, total radioactivity” value (PC3(+) xenografts [1]; [10]) was 87.8 ± 5.1 %ID/g and the Femur uptake (PC3(+) xenografts [1]; all times 15 to 120 min) was < 1 %ID/g. For the same molecule, the “Femur T:M” value (PC3(+) xenografts [1]; all times except 120 min) was < 1.8, the “decrease of tumor T:M compared to [18F]DCFPyL tumor T:M” value (PC3(+) xenografts [1]; at 30 and 60 min) was ~ 2 fold and the “increase in tumor T:M from 15 to 120 min” value (PC3(+) xenografts [1]; mouse, in vivo) was ~ 14 fold. For the same molecule, the “increase of tumor retention (%ID/g) from 15 to 120 min” value (PC3(+) xenografts [1]; mouse, in vivo) was 1.4 fold, the “decrease of PC3(+) tumor T:M in blocked group compared to non-blocked group” value (PC3(+) xenografts [5]) was 48% and the “PC3(+) tumor uptake from ROI analysis of PET images” value [6] was 14 %ID/g. For the same molecule, the “increase of liver uptake compared to [18F]DCFPyL (PET ROI)” value [6] was ~ 10 fold, the “kidney uptake from ROI analysis of PET images” value [6] was 98 %ID/g and the “liver uptake from ROI analysis of PET images” value [6] was 29 %ID/g. For the same molecule, the “reduction of kidney uptake compared to [18F]DCFPyL (PET ROI)” value [6] was ~ 50%, the “%Parent compound in blood (TLC analysis)” value ([2]; mean ± SD, n = 2–5) was 84.8 ± 0.6% and the “increase of parent kidney uptake compared to [18F]DCFPyL” value ([2]; 120 min) was 4 fold. For the same molecule, the tissue uptake at 0.25 h [2, 11] was 4.1 ± 0.49 %ID/g, the tissue uptake at 0.5 h [2, 11] was 2.08 ± 0.15 %ID/g and the tissue uptake at 2 h [2, 11] was 0.31 ± 0.03 %ID/g. For the same molecule, the tissue uptake at 0.25 h [2, 12] was 11.8 ± 0.64 %ID/g, the tissue uptake at 0.5 h [2, 12] was 22.7 ± 1.73 %ID/g and the tissue uptake at 1 h ([2]; mouse, kidney, intravenous, 60 min post-injection, mean ± SE, read-out: Kidney uptake, parent (corrected for metabolites)) was 15.6 ± 1.19 %ID/g. The tissue uptake at 2 h [2, 12] was 13 ± 0.98 %ID/g, the “% of parent in blood” value ([2]; nude, mouse, in vivo) was 85-83 and the “% of parent in kidney” value ([2]; nude, mouse, in vivo) was 29-15. The “%Parent compound in blood (TLC analysis)” value ([2]; nude, mouse, in vivo) was 85%, the Kd (PSMA [4]) was 0.362 nM and the “PC3(−) Tumor T:M” value (PC3(−) xenografts) was 1.42 ± 0.13.
